Laboratory results taken from ChEMBL document CHEMBL1158946, “Sesquiterpenoids from Brachylaena hutchinsii” (1991).
Values after ≈ are worked out from the molar mass of the structure shown.

Legend:
Streptococcus mutans = assay: Antimicrobial activity against Streptococcus mutans ATCC 25175 after 48 hrs by twofold serial broth dilution method; assay type: functional; details: ATCC 25175, 48 h
[1] = tested on: Corynebacterium ammoniagenes; assay: Antimicrobial activity against Brevibacterium ammoniagenes ATCC 6872 after 48 hrs by twofold serial broth dilution method; assay type: functional; details: ATCC 6872, 48 h

Structure (SMILES) | MIC (Streptococcus mutans) [µg/mL] | MIC [1] [µg/mL]
CC(C)[C@H]1C(=O)C[C@@]2(C)[C@@H]3C(CO)=CC[C@H]2[C@H]13 | > 800 | > 800
CC(C)[C@@H]1C(=O)CC2(C)C3C(CO)=CC[C@@H]2[C@H]31 | > 800 | > 800
CC(C)[C@@H]1C(=O)CC2(C)C3C(C=O)=CC[C@@H]2[C@H]31 | 800 (≈ 3.44 mM) | 800 (≈ 3.44 mM)

The remaining lines, values ahead:

MIC (Streptococcus mutans) [µg/mL] | MIC [1] [µg/mL] | Structure (SMILES)
800 (≈ 3.44 mM) | 800 (≈ 3.44 mM) | CC(C)[C@H]1C(=O)CC2(C)C3C(C=O)=CC[C@@H]2[C@H]31
25 (≈ 0.113 mM) | 25 (≈ 0.113 mM) | CC(C)[C@@H]1CCC2(C)C3C(CO)=CC[C@@H]2[C@H]31 [YLANGENOL]
